Among the data in ChEMBL document CHEMBL5033997, “Macrolide Inspired Macrocycles as Modulators of the IL-17A/IL-17RA Interaction” (J Med Chem, 2021) are IC50 values, retold here.

A short description of this assay: Inhibition of recombinant human IL-17A/IL-17AR protein-protein interaction using TMB substrate compound added on IL17A precoated plate and followed by IL-17AR addition by ELISA.
Turning to `CO[C@]1(C)C[C@H](O[C@H]2[C@H](C)[C@@H](O[C@@H]3O[C@H](C)C[C@H](N(C)C)[C@H]3O)[C@](C)(O)C[C@@H](C)CN(C)C(=O)C[C@@H](Cc3ccc(NC(=O)[C@H](Cc4ccccc4Cl)NC(=O)Cc4cccc(F)c4)cc3)NC(=O)[C@H](C(C)C)NC(=O)[C@@H]2C)O[C@@H](C)[C@@H]1O`, the IC50 was 0.08 µM.

For `CO[C@]1(C)C[C@H](O[C@H]2[C@H](C)[C@@H](O[C@@H]3O[C@H](C)C[C@H](N(C)C)[C@H]3O)[C@](C)(O)C[C@@H](C)CN(C)C(=O)C[C@@H](Cc3ccc(NC(=O)[C@H](Cc4ccccc4F)NC(=O)Cc4ccccc4)cc3)NC(=O)[C@H](C(C)C)NC(=O)[C@@H]2C)O[C@@H](C)[C@@H]1O`, the IC50 is 0.315 µM.

Turning to `CO[C@]1(C)C[C@H](O[C@H]2[C@H](C)[C@@H](O[C@@H]3O[C@H](C)C[C@H](N(C)C)[C@H]3O)[C@](C)(O)C[C@@H](C)CN(C)C(=O)C[C@@H](Cc3ccc(NC(=O)[C@H](Cc4ccccc4Cl)NC(=O)Cc4cccc(C)c4)cc3)NC(=O)[C@H](C(C)C)NC(=O)[C@@H]2C)O[C@@H](C)[C@@H]1O`, the concentration for half-maximal inhibition (IC50) was 0.077 µM. Consider `CO[C@]1(C)C[C@H](O[C@H]2[C@H](C)[C@@H](O[C@@H]3O[C@H](C)C[C@H](N(C)C)[C@H]3O)[C@](C)(O)C[C@@H](C)CN(C)C(=O)C[C@@H](Cc3ccc(NC(=O)[C@H](Cc4ccccc4Cl)NC(=O)Cc4ccccc4)cc3)NC(=O)[C@@H]3CCCN3C(=O)[C@@H]2C)O[C@@H](C)[C@@H]1O`, for which the IC50 is more than 30 µM.

For the molecule `CO[C@]1(C)C[C@H](O[C@H]2[C@H](C)[C@@H](O[C@@H]3O[C@H](C)C[C@H](N(C)C)[C@H]3O)[C@](C)(O)C[C@@H](C)CN(C)C(=O)C[C@@H](Cc3ccc(NC(=O)[C@H](Cc4ccccc4Cl)NC(=O)Cc4ccccc4)cc3)NC(=O)C[C@@H](CC(C)C)NC(=O)[C@@H]2C)O[C@@H](C)[C@@H]1O`, the IC50 is more than 30 µM. On to `CO[C@]1(C)C[C@H](O[C@H]2[C@H](C)[C@@H](O[C@@H]3O[C@H](C)C[C@H](N(C)C)[C@H]3O)[C@](C)(O)C[C@@H](C)CN(C)C(=O)C[C@@H](Cc3ccc(NC(=O)[C@H](Cc4ccccc4Cl)NC(=O)Cc4ccc(C#N)cc4)cc3)NC(=O)[C@H](C(C)C)NC(=O)[C@@H]2C)O[C@@H](C)[C@@H]1O`, for which the 50% inhibitory concentration (IC50) turned out to be 0.303 µM. Regarding `CO[C@]1(C)C[C@H](O[C@H]2[C@H](C)[C@@H](O[C@@H]3O[C@H](C)C[C@H](N(C)C)[C@H]3O)[C@](C)(O)C[C@@H](C)CN(C)C(=O)C[C@@H](Cc3ccc(NC(=O)[C@H](Cc4ccccc4Cl)NC(=O)Cc4ccccc4)cc3)NC(=O)[C@H](C)NC(=O)[C@@H]2C)O[C@@H](C)[C@@H]1O`, the IC50 came to 15 µM. Turning to `CO[C@]1(C)C[C@H](O[C@H]2[C@H](C)[C@@H](O[C@@H]3O[C@H](C)C[C@H](N(C)C)[C@H]3O)[C@](C)(O)C[C@@H](C)CN(C)C(=O)C[C@@H](Cc3ccc(NC(=O)[C@H](Cc4ccccc4Cl)NC(=O)Cc4ccccc4)cc3)NC(=O)[C@@H](C)NC(=O)[C@@H]2C)O[C@@H](C)[C@@H]1O`, the IC50 was more than 30 µM. Turning to `CO[C@]1(C)C[C@H](O[C@H]2[C@H](C)[C@@H](O[C@@H]3O[C@H](C)C[C@H](N(C)C)[C@H]3O)[C@](C)(O)C[C@@H](C)CN(C)C(=O)[C@H](C(C)C)NC(=O)C[C@H](Cc3ccc(NC(=O)[C@H](Cc4ccccc4Cl)NC(=O)Cc4ccccc4)cc3)NC(=O)[C@@H]2C)O[C@@H](C)[C@@H]1O`, the IC50 is more than 30 µM.

As for `CO[C@]1(C)C[C@H](O[C@H]2[C@H](C)[C@@H](O[C@@H]3O[C@H](C)C[C@H](N(C)C)[C@H]3O)[C@](C)(O)C[C@@H](C)CN(C)C(=O)C[C@@H](Cc3ccc(NC(=O)[C@H](Cc4ccccc4Cl)NC(=O)C(C)c4ccccc4)cc3)NC(=O)[C@H](C(C)C)NC(=O)[C@@H]2C)O[C@@H](C)[C@@H]1O` (some centres not stated), the IC50 turned out to be 0.246 µM. As to `CO[C@]1(C)C[C@H](O[C@H]2[C@H](C)[C@@H](O[C@@H]3O[C@H](C)C[C@H](N(C)C)[C@H]3O)[C@](C)(O)C[C@@H](C)CN(C)C(=O)C[C@@H](Cc3ccc(NC(=O)[C@H](Cc4ccccc4Cl)NC(=O)Cc4ccccc4F)cc3)NC(=O)[C@H](C(C)C)NC(=O)[C@@H]2C)O[C@@H](C)[C@@H]1O`, the IC50 came out at 0.198 µM.

Take `CO[C@]1(C)C[C@H](O[C@H]2[C@H](C)[C@@H](O[C@@H]3O[C@H](C)C[C@H](N(C)C)[C@H]3O)[C@](C)(O)C[C@@H](C)CN(C)C(=O)C[C@@H](Cc3ccc(NC(=O)[C@H](Cc4ccccc4Cl)NC(=O)NCc4ccc(F)cc4)cc3)NC(=O)[C@H](C(C)C)NC(=O)[C@@H]2C)O[C@@H](C)[C@@H]1O`: the IC50 came out at 0.179 µM. For `CO[C@]1(C)C[C@H](O[C@H]2[C@H](C)[C@@H](O[C@@H]3O[C@H](C)C[C@H](N(C)C)[C@H]3O)[C@](C)(O)C[C@@H](C)CN(C)C(=O)C[C@@H](Cc3ccc(NC(=O)[C@H](Cc4ccccc4Cl)NC(=O)Cc4ccc(S(C)(=O)=O)cc4)cc3)NC(=O)[C@H](C(C)C)NC(=O)[C@@H]2C)O[C@@H](C)[C@@H]1O` the value was 0.946 µM; for `CO[C@]1(C)C[C@H](O[C@H]2[C@H](C)[C@@H](O[C@@H]3O[C@H](C)C[C@H](N(C)C)[C@H]3O)[C@](C)(O)C[C@@H](C)CN(C)C(=O)C[C@@H](Cc3ccc(NC(=O)[C@H](Cc4ccc(Cl)cc4Cl)NC(=O)Cc4ccccc4)cc3)NC(=O)[C@H](C(C)C)NC(=O)[C@@H]2C)O[C@@H](C)[C@@H]1O`, 0.211 µM; for `CO[C@]1(C)C[C@H](O[C@H]2[C@H](C)[C@@H](O[C@@H]3O[C@H](C)C[C@H](N(C)C)[C@H]3O)[C@](C)(O)C[C@@H](C)CN(C)C(=O)C[C@@H](Cc3ccc(NC(=O)[C@H](Cc4ccccc4Cl)NC(=O)Cc4ccccc4C)cc3)NC(=O)[C@H](C(C)C)NC(=O)[C@@H]2C)O[C@@H](C)[C@@H]1O`, 0.116 µM. To `CO[C@]1(C)C[C@H](O[C@H]2[C@H](C)[C@@H](O[C@@H]3O[C@H](C)C[C@H](N(C)C)[C@H]3O)[C@](C)(O)C[C@@H](C)CN(C)C(=O)C[C@@H](Cc3ccc(NC(=O)[C@H](Cc4ccccc4Cl)NC(=O)Nc4cccc(F)c4)cc3)NC(=O)[C@H](C(C)C)NC(=O)[C@@H]2C)O[C@@H](C)[C@@H]1O` belongs 0.547 µM.

On to `COc1ccc(C2(C(=O)N[C@@H](Cc3ccccc3Cl)C(=O)Nc3ccc(C[C@@H]4CC(=O)N(C)C[C@H](C)C[C@@](C)(O)[C@H](O[C@@H]5O[C@H](C)C[C@H](N(C)C)[C@H]5O)[C@@H](C)[C@H](O[C@H]5C[C@@](C)(OC)[C@@H](O)[C@H](C)O5)[C@@H](C)C(=O)N[C@@H](C(C)C)C(=O)N4)cc3)CC2)cc1`, for which the IC50 came out at 5.39 µM. In the case of `CO[C@]1(C)C[C@H](O[C@H]2[C@H](C)[C@@H](O[C@@H]3O[C@H](C)C[C@H](N(C)C)[C@H]3O)[C@](C)(O)C[C@@H](C)CN(C)C(=O)C[C@@H](Cc3ccc(NC(=O)[C@H](Cc4ccccc4Cl)NC(=O)Cc4cccc(C#N)c4)cc3)NC(=O)[C@H](C(C)C)NC(=O)[C@@H]2C)O[C@@H](C)[C@@H]1O`, the IC50 turned out to be 0.471 µM.

On to `CO[C@]1(C)C[C@H](O[C@H]2[C@H](C)[C@@H](O[C@@H]3O[C@H](C)C[C@H](N(C)C)[C@H]3O)[C@](C)(O)C[C@@H](C)CN(C)C(=O)[C@@H](Cc3ccc(NC(=O)[C@H](Cc4ccccc4Cl)NC(=O)Cc4ccccc4)cc3)NC(=O)[C@@H](C(C)C)CNC(=O)[C@@H]2C)O[C@@H](C)[C@@H]1O`, for which the IC50 is more than 30 µM. Take `CO[C@]1(C)C[C@H](O[C@H]2[C@H](C)[C@@H](O[C@@H]3O[C@H](C)C[C@H](N(C)C)[C@H]3O)[C@](C)(O)C[C@@H](C)CN(C)C(=O)C[C@@H](Cc3ccc(NC(=O)[C@H](Cc4ccccc4Cl)NC(=O)Nc4ccc(F)cc4)cc3)NC(=O)[C@H](C(C)C)NC(=O)[C@@H]2C)O[C@@H](C)[C@@H]1O`: the IC50 stood at 0.323 µM. For `CO[C@]1(C)C[C@H](O[C@H]2[C@H](C)[C@@H](O[C@@H]3O[C@H](C)C[C@H](N(C)C)[C@H]3O)[C@](C)(O)C[C@@H](C)CN(C)C(=O)C[C@@H](Cc3ccc(NC(=O)[C@H](Cc4ccccc4Cl)NC(=O)Cc4ccccc4)cc3)NC(=O)C[C@H](C(C)C)NC(=O)[C@@H]2C)O[C@@H](C)[C@@H]1O` the value was more than 30 µM; for `CO[C@]1(C)C[C@H](O[C@H]2[C@H](C)[C@@H](O[C@@H]3O[C@H](C)C[C@H](N(C)C)[C@H]3O)[C@](C)(O)C[C@@H](C)CN(C)C(=O)C[C@@H](Cc3ccc(NC(=O)[C@H](Cc4c(Cl)cccc4Cl)NC(=O)Cc4ccccc4)cc3)NC(=O)[C@H](C(C)C)NC(=O)[C@@H]2C)O[C@@H](C)[C@@H]1O`, 0.166 µM. `CO[C@]1(C)C[C@H](O[C@H]2[C@H](C)[C@@H](O[C@@H]3O[C@H](C)C[C@H](N(C)C)[C@H]3O)[C@](C)(O)C[C@@H](C)CN(C)C(=O)C[C@@H](Cc3ccc(NC(=O)[C@H](Cc4ccccc4Cl)NC(=O)Cc4ccccc4)cc3)NC(=O)CCNC(=O)[C@@H]2C)O[C@@H](C)[C@@H]1O`: the IC50 is more than 30 µM.

As to `CO[C@]1(C)C[C@H](O[C@H]2[C@H](C)[C@@H](O[C@@H]3O[C@H](C)C[C@H](N(C)C)[C@H]3O)[C@](C)(O)C[C@@H](C)CN(C)C(=O)[C@@H](C(C)C)NC(=O)C[C@@H](Cc3ccc(NC(=O)[C@H](Cc4ccccc4Cl)NC(=O)Cc4ccccc4)cc3)NC(=O)[C@@H]2C)O[C@@H](C)[C@@H]1O`, the IC50 was more than 30 µM.

For the molecule `CO[C@]1(C)C[C@H](O[C@H]2[C@H](C)[C@@H](O[C@@H]3O[C@H](C)C[C@H](N(C)C)[C@H]3O)[C@](C)(O)C[C@@H](C)CN(C)C(=O)[C@@H](C(C)C)NC(=O)C[C@H](Cc3ccc(NC(=O)[C@H](Cc4ccccc4Cl)NC(=O)Cc4ccccc4)cc3)NC(=O)[C@@H]2C)O[C@@H](C)[C@@H]1O`, the IC50 stood at 0.256 µM. To `CO[C@]1(C)C[C@H](O[C@H]2[C@H](C)[C@@H](O[C@@H]3O[C@H](C)C[C@H](N(C)C)[C@H]3O)[C@](C)(O)C[C@@H](C)CN(C)C(=O)C[C@@H](Cc3ccc(NC(=O)[C@H](Cc4ccccc4Cl)NC(=O)Cc4ccccc4)cc3)NC(=O)[C@@H](C(C)C)NC(=O)[C@@H]2C)O[C@@H](C)[C@@H]1O` belongs more than 30 µM; to `CO[C@]1(C)C[C@H](O[C@H]2[C@H](C)[C@@H](O[C@@H]3O[C@H](C)C[C@H](N(C)C)[C@H]3O)[C@](C)(O)C[C@@H](C)CN(C)C(=O)C[C@@H](Cc3ccc(NC(=O)[C@H](Cc4ccccc4Cl)NC(=O)Cc4ccccc4)cc3)NC(=O)[C@H](C3CC3)NC(=O)[C@@H]2C)O[C@@H](C)[C@@H]1O`, 2.62 µM.
